In a melting point compilation (Tetko et al.; mined from patent text by program, amines drawn as free bases though some values may be those of a salt):

melting point | Compound
76 °C | Cc1csc(C(=O)OC(C)C)c1S(N)(=O)=O
265 to 268 °C | CC(C)CNC1NC(=O)N(c2cccs2)C(=O)N1
97 °C | CN(C)C=C(C=O)c1ccc(C(F)(F)F)cc1
111 °C | COc1ccc(C2CC(c3ccccc3)=NN2c2ccc(S(N)(=O)=O)cc2)cc1 (configuration not stated)
162 to 165 °C | CCc1cc2c(cc(C(N)=O)c(=O)n2Cc2ccc(-c3ccccc3-c3nnn(C(c4ccccc4)(c4ccccc4)c4ccccc4)n3)cc2)c(CC)n1
213 to 214 °C | N=C1CC(=O)Oc2cc(OCC(O)COc3ccccc3)ccc21 (configuration not stated)
237 to 243 °C | CN1CC(=O)Nc2ccc(-c3cccc([N+](=O)[O-])c3)cc21
192 to 195 °C | Nc1nc2c(s1)CCN(C/C=C\c1cccc3c1CC(=O)N3)CC2
165 to 167 °C | COC(=O)c1ccc(C(C)(C)NC(C)=O)cc1
164 to 165 °C | Cn1cc(Sc2ccccc2)c(=O)c(-c2cccc(C(F)(F)F)c2)c1
104 to 105 °C | Cc1cc(C(C)(C)C)c(O)c([N+](=O)[O-])c1[N+](=O)[O-]
210 to 211 °C | O=C(O)COc1cc(F)c(-c2ccccc2)cc1C(=O)NCc1cccc([N+](=O)[O-])c1
228 to 229 °C | Cc1nn(-c2c(Cl)cc(C(F)(F)F)cc2Cl)nc1-c1nc(C#N)c(C#N)[nH]1
> 300 °C | Cn1c(=O)c2c(C(=O)O)nc(O)n2c2ccccc21
112 to 115 °C | CC(C)CCCC(C)CCOc1cc(CO)c(-c2ccccc2)cc1CO (configuration not stated)
125 to 127 °C | CC(CNC(=S)Nc1ccc(N2CCCCC2)cc1)N(Cc1ccc(Cl)c(Cl)c1)c1ccc(Br)cn1 (configuration not stated)
291 °C | N#Cc1c(N)nc2ccc(N3CCN(Cc4ccccc4)CC3)cc2c1O
158 to 159 °C | CN(Cc1ccc(NC(=O)C2=Cc3cc(-c4cccnc4)ccc3OCC2)cc1)C1CCOCC1
143 to 144 °C | CC(C)CCS(=O)(=O)NC(=O)/C=C/c1cc(OC2CCOCC2)nn1Cc1ccc(Cl)cc1Cl
195 to 196 °C | CSc1ccc(-c2csc3ccc(C(=O)NN)cc23)cc1
103 °C | c1ccc2c(c1)OCCc1c-2n(CCN2CCCCC2)c2ccccc12
151 to 154 °C | COc1ccc(-n2nc(CCC(=O)N(C)O)cc2-c2ccc(F)cc2)cc1
182 °C | O=[N+]([O-])c1cccc(-c2csc(Nc3ccccc3C(F)(F)F)n2)c1
78 to 79 °C | CC(=O)OCC1C(C(=O)O)C1(C)C (configuration not stated)
93 °C | O=C(O)CCCCCNC(=NC(=O)OCc1ccccc1)NC(=O)OCc1ccccc1

The next lines start with the compound.

Compound | melting point
CC(C)(C)OC(=O)N1CCC(c2ccc(N3C[C@H](CN)OC3=O)cc2F)CC1 | 136 to 137 °C
O=C(C=Cc1ccc(NS(=O)(=O)c2ccccc2)cc1)NO | 189 to 191 °C
O=S1(=O)c2cccc3cccc(c23)N1CCCN1CCN(c2cccc(F)c2)CC1 | 103 °C
CCOC(=O)c1cc2c(C(=O)CN(Cc3ccccc3)C(C)(C)C)ccc(OCc3ccccc3)c2[nH]1 | 155 to 157 °C
COc1ccc(CNc2n[nH]c3ncnc(Nc4cccc(Cl)c4)c23)cc1OC | 228 to 232 °C
COc1cc(C(=O)CS(C)=O)c(N)c(OC)c1OC (configuration not stated) | 102 to 104 °C
CC(CC1CCNCC1)c1c[nH]c2ccccc12 (configuration not stated) | 125 °C
Oc1ccc2c(c1)COc1cc3cc(O)ccc3cc1-2 | 231 to 233 °C
COc1ccccc1C=CCN1CCc2nc(N)sc2CC1 | 80 to 84 °C
CSc1c(N)nc(NCCCOC(C)C)nc1Cl | 245 °C
Cc1ccc2[nH]cc(C(=O)[C@H]3CCCN3)c2c1 | 194 to 196 °C
CCOc1nc(N)nc(N2CCc3ccccc3CC2)c1C#N | 195 to 203 °C
CCCC(=O)NC[C@@H]1C[C@H]1c1cccn2nc(C)cc12 (relative stereo) | 82 to 84 °C
O=C(Nc1ccc(C(=O)N2CCC=Cc3ccccc32)cc1)c1ccccc1Cl | 205 to 207 °C
C[C@H](CS(C)(=O)=O)NC(=O)c1c[nH]c2ncc(-c3nn(C)c4cc(Cl)ccc34)nc12 | 287 to 290 °C
CCCOc1cc([N+](=O)[O-])ccc1N | 59 to 61 °C
C=C(Cl)CONC(=O)c1nc(-c2ccc(Cl)c(OC)c2F)cc(N)c1Cl | 146 to 148 °C
COC(=O)c1ccccc1-c1ccc(OC)cn1 | 130 to 132 °C
C=C(C)C(=O)O[C@H]1C[C@@H](C(=O)OC)[C@]2(C)CC[C@H]3C(=O)O[C@H](c4ccoc4)C[C@]3(C)[C@H]2C1=O | 196 to 199 °C
Cc1ccccc1NC(=O)CN1C[C@@H](C)N(S(=O)(=O)c2cccc(C#N)c2)[C@@H](C)C1 | 152 to 153 °C
Cc1cnc(NS(C)(=O)=O)cc1C(c1cc(F)ccc1F)S(=O)(=O)c1ccc(Cl)cc1 (configuration not stated) | 214 to 217 °C
CC(C)c1cc2c(s1)Sc1ccccc1NC2=S | 210 °C
CCn1cc(C(=O)O)c(=O)cc1-c1cccnc1 | 209 to 210 °C
CCCCCCCCC1C=CC(Cc2ccc(C(=O)O)o2)=C2N=C3CCCCC3=C21 (configuration not stated) | 152 to 155 °C

Compound | melting point
O=c1cc(-c2ccncc2)oc2ccccc12 | 144 to 145 °C
O=C1OC2(CCN(C(=O)Nc3cnc(-c4ccccc4)cn3)CC2)c2ccc(F)cc21 | 236 to 238 °C
N#CC1c2ccccc2C(Nc2ccc(Cl)cc2)=NN1C(=O)c1ccccc1 (configuration not stated) | 201 to 202 °C
CCOc1nn(Cc2ccc(OCc3nc(-c4ccco4)oc3C)c(OC)c2)cc1CCC(=O)O | 133 to 134 °C
c1ccc(-c2noc3ccccc23)c(CNCc2ccccc2-c2noc3ccccc23)c1 | 138 °C
CS(=O)(=O)c1ccc(Cl)cc1C1NC(=O)NC1=O (configuration not stated) | 238 to 240 °C
CN1CCCCC1C(NC(=O)Nc1ccc2[nH]ncc2c1)c1cc(F)cc(Cl)c1 (configuration not stated) | 192 °C
CCCCCCCCCCCCCCCCCC(=O)Oc1ccc([N+](=O)[O-])cc1OC(=O)CCCCCCCCCCCCCCCCC | 68 to 70 °C
CN1CCC(c2c[nH]c3cnc(-n4cncn4)cc23)CC1 | 209 to 211 °C
COCCN1CCN(C(C)c2ccc(-c3ccc(F)cc3)cc2)CC1 (configuration not stated) | 61 to 62 °C
CC(C)(C)OC(=O)Nc1ccc(CCO)cc1 | 104 to 105 °C
CC1(C)Oc2cc3nc(SCc4ccccn4)[nH]c3cc2O1 | 210 to 211 °C
O=[N+]([O-])c1ccc(OCC2CC2)c(C(F)(F)F)c1 | 41 to 44 °C
COC(=O)C=Cc1nn(-c2ccccc2)c2c1CCC2 | 147 to 148 °C
COC(=O)Cc1cn(C2CCCCC2)nc1O | 135 to 136 °C
O=C1CCc2c(OCCCl)cccc21 | 56 to 58 °C
C=CCNC(=O)n1nc(O)cc1C | 80 to 83 °C
CCOc1cccc(NC(=O)N2CCc3cc(SC)c(C(F)(F)F)cc32)c1 | 233 to 234 °C
CCCn1c(=O)c(-c2c(Cl)cccc2Cl)cc2cnc(N)nc21 | 196 to 197 °C
O=C(O)c1ccc(OCCCCl)cc1 | 136 to 138 °C
COc1ccccc1N1CCN(CCCOc2ccc(-c3nnco3)cc2)CC1 | 139 to 140 °C
COc1cc(C(C)C)c(OC(C#N)=CNc2ccccc2)cc1I | 170 °C
CC(C)N(CCN1C(=O)/C(=N/NC(N)=O)c2cc(Br)ccc21)C(C)C | 149 to 153 °C
